According to US12098147B2, “Compound having novel structure, complex comprising same, anti-cancer pharmaceutical composition, and anti-cancer drug” (ETNOVA THERAPEUTICS CORP., priority 2018, dated 2024):
Where two headings read alike, the source gives them in different places.

Key:
[1] = system: Caki-2; assay: CCK-8 cell viability, Caki-2 kidney cancer cell line; assay type: cell-based, human; settings: serum-free medium, 24 hours, mean ± SD of 2 to 3 experiments
Procedure: (§1) To identify the anticancer effect of the compounds L1, L2, and L3 according to Examples 1 to 3 of the present disclosure, and the complexes L1Pt, L2Pt, and L3Pt according to Examples 4 to 6 of the disclosure, the cell viability analysis of cancer cells using CCK-8 was performed on several cancer cell lines (colorectal cancer cell line (HT-29 cell line), breast cancer cell line (MCF-7 and MDA-MB-231), cervical cancer cell line (HeLa cell line), liver cancer cell line (Huh-7 and HepG2), brain glioma cell line (C6), lung cancer (A549), prostate cancer (PC3), kidney cancer (Caki-2), normal liver cell line (AML-12), embryonic kidney cell line (HEK-293), neural stem cell line (NE-4C) and normal breast epithelial cell line (MCF10a)).
(§2) CCK-8 (Cell counting kit-8) is analyzed using a highly water-soluble tetrazolium salt-[…]. [2-(2-methoxy-4-nitrophenyl)-3-(4-nitrophenyl)(2,4-disulfophenyl)-2H-tetrazolium, monosodium salt] is reduced under the presence of an electron medium to produces a water-soluble formazan orange dye. The amount of the formazan dye produced by dehydrogenase in a cell is directly proportional to the number of living cells.
(§3) In an experimental method for evaluating the properties of the compounds according to the present disclosure, various cancer cell lines derived from humans and normal cell lines of each tissue derived from humans and mice were used in this experiment. A complete growth medium corresponding to each cell line and having 10% of heat-inactivated FBS added thereto was used to maintain corresponding cells. The maintained cells were suspended in a volume of 200 μl at a density of 1 or 1.5×10^4 cells and planted in each well of a 96 well plate. The cells were attached to a 37° C. and 5% CO2 incubator for more than 14 hours, and we waited for a stable state. The next day, we removed the medium from the well. 100 μl of serum-free medium containing drugs of various concentrations (0 (control), 2.5, 5, 10, 20, 30, 40, 50, 100, 200 μM) was added to each well and the cells was cultured therein. On 22 hours after the incubation, 10 μl of CCK-8 solution was added to each well, followed by incubation for 2 hours. A plate on which the culture was completed was measured in terms of absorbance at 450 nm using a microplate reader.
(§4) Cell Viability Calculation:
(§5) • A: Absorbance value measured in a control well • B: Absorbance value measured in a well containing the drug
(§6) In Table 1 below, each compound was applied to the cells at 0, 2.5, 5, 10, 20, 30, 40, 50, 100, and 200 μM, and the cells was cultured in a medium free of serum for 24 hours. The measured absorbance value was converted to a % value based on a value of 0, such that a IC50 value was calculated. Each experiment was performed 2 to 3 times and a standard deviation value was obtained.

[2] = system: A549; assay: CCK-8 cell viability, A549 lung cancer cell line; assay type: cell-based, human; settings: serum-free medium, 24 hours, mean ± SD of 2 to 3 experiments
Procedure: as §1, §2, §3, §4, §5, §6

[3] = system: NE-4C; assay: CCK-8 cell viability, NE-4C neural stem cell line; assay type: cell-based; settings: for IC50: serum-free medium, 24 hours, CCK-8, mean ± SD of 2 to 3 experiments, read-out: IC50 NC-4C (Neural stem cell); for toxicity against brain neurons, in words: brain neurons (NE-4C), FIG. 4
Procedure: as §2, §3, §4, §5, §6

[4] = system: MCF10a; assay: CCK-8 cell viability, MCF10a normal breast epithelial cell line; assay type: cell-based; settings: for IC50: serum-free medium, 24 hours, CCK-8, mean ± SD of 2 to 3 experiments; for cytotoxicity against breast epithelial cells, in words: breast epithelial cells (MCF10a), FIG. 4
Procedure: as §1, §2, §3, §4, §5, §6

[5] = system: AML12; assay: CCK-8 cell viability, AML-12 normal liver cell line; assay type: cell-based; settings: for IC50: serum-free medium, 24 hours, CCK-8, mean ± SD of 2 to 3 experiments; for toxicity against normal hepatocytes, in words: normal hepatocytes (AML12), FIG. 4
Procedure: as §2, §3, §4, §5, §6

[6] = system: C6; assay: CCK-8 cell viability, C6 brain glioma cell line; assay type: cell-based, human; settings: 24 hours, mean ± SD of 2 to 3 experiments
Procedure: as §1, §2, §3, §4, §5, §6

[7] = system: PC3; assay: CCK-8 cell viability, PC3 prostate cancer cell line; assay type: cell-based, human; settings: 24 hours, mean ± SD of 2 to 3 experiments
Procedure: as §1, §2, §3, §4, §5, §6

[8] = system: HepG2; assay: CCK-8 cell viability, HepG2 liver cancer cell line; assay type: cell-based, human; settings: 24 hours, mean ± SD of 2 to 3 experiments
Procedure: as §1, §2, §3, §4, §5, §6

[9] = system: HEK-293; assay: CCK-8 cell viability, HEK-293 embryonic kidney cell line; assay type: cell-based; settings: serum-free medium, 24 hours, mean ± SD of 2 to 3 experiments, read-out: IC50 HEK293 (embryonic kidney)
Procedure: as §1, §2, §3, §4, §5, §6

[10] = system: Huh-7; assay: CCK-8 cell viability, Huh-7 liver cancer cell line; assay type: cell-based, human; settings: 24 hours, mean ± SD of 2 to 3 experiments
Procedure: as §1, §2, §3, §4, §5, §6

[11] = system: several cancer cell lines; assay: CCK-8 cell viability, panel of cancer cell lines compared in words (FIGS. 3a to 3e); assay type: cell-based, human; settings: for effect on cancer cell lines, in words: Log IC50, FIGS. 3a to 3e, no comparator; for effect on cancer cell lines compared with the rest of the compounds, in words / toxic effect on cancer cell lines compared with cisplatin and BTA, in words / cell toxicity on cancer cell lines compared with BTA, in words / cell toxicity on cancer cell lines compared with cisplatin, in words: Log IC50 comparison, FIGS. 3a to 3e; for effect on cancer cell lines compared with the rest of the compounds, in words: comparator the rest of the compounds; for toxic effect on cancer cell lines compared with cisplatin and BTA, in words: comparators cisplatin and BTA; for cell toxicity on cancer cell lines compared with BTA, in words: comparator BTA; for cell toxicity on cancer cell lines compared with cisplatin, in words: comparator cisplatin
Procedure: as §1, §2, §3
Further, FIGS. 3a to 3e show a graph in which a IC50 value which is obtained based on 2 to 3 times executions of the cell viability analysis is converted to a Log IC50 value. […] The comparative reliability values for BTA were expressed as […], ##p<0.01, and ## #p<0.001. A red line represents the value of cisplatin. A blue line represents the value of BTA.

[12] = system: MCF-7; assay: CCK-8 cell viability, MCF-7 breast cancer cell line; assay type: cell-based, human; settings: 24 hours, mean ± SD of 2 to 3 experiments
Procedure: as §1, §2, §3, §4, §5, §6

[13] = system: HeLa cell line; assay: CCK-8 cell viability, HeLa cervical cancer cell line; assay type: cell-based, human; settings: serum-free medium, 24 hours, mean ± SD of 2 to 3 experiments
Procedure: as §1, §2, §3, §4, §5, §6

[14] = system: HT-29 cell line; assay: CCK-8 cell viability, HT-29 colorectal cancer cell line; assay type: cell-based, human; settings: serum-free medium, 24 hours, mean ± SD of 2 to 3 experiments
Procedure: as §1, §2, §3, §4, §5, §6

[15] = system: MDA-MB-231; assay: CCK-8 cell viability, MDA-MB-231 breast cancer cell line; assay type: cell-based, human; settings: 24 hours, mean ± SD of 2 to 3 experiments
Procedure: as §1, §2, §3, §4, §5, §6

[16] = Rattus norvegicus, C6, serum-free medium
[17] = Homo sapiens, HepG2, serum-free medium
[18] = Homo sapiens, Huh-7, serum-free medium
[19] = Homo sapiens, MCF7, serum-free medium
[20] = Homo sapiens, MDA-MB-231, serum-free medium

Structure (SMILES) | IC50 [1] | IC50 [2] | IC50 [3] | IC50 [4] | IC50 [5] | IC50 ([6]; serum-free medium) | IC50 ([7]; serum-free medium) | IC50 ([8]; serum-free medium) | IC50 [9] | IC50 ([10]; serum-free medium) | IC50 ([12]; serum-free medium) | IC50 [13] | IC50 [14] | IC50 ([15]; serum-free medium) | IC50 ([3]; Neural stem cell) | toxicity against brain neurons, in words [3] | cytotoxicity against breast epithelial cells, in words [4] | IC50 [6, 16] | IC50 [10, 18] | toxicity against normal hepatocytes, in words [5] | other results
N.N.[Cl][Pt][Cl] [Cisplatin, cisplatin, reference compound] | > 500 µM | > 500 µM | 9.01 ± 0.28 µM | 96 ± 6.72 µM | 32.1 ± 4.45 µM | 227 ± 34.3 µM | > 500 µM | 54.2 ± 31.8 µM | 65.5 ± 4.06 µM | 38.6 ± 18.5 µM | 204 ± 27.3 µM | 26.2 ± 5.61 µM | 39.1 ± 0.61 µM | 181 ± 48.7 µM | – | – | – | – | – | – | effect on cancer cell lines, in words [11]: did not have a great effect on lung cancer, prostate cancer, and kidney cancer
NCC(N)C(=O)Nc1ccc(-c2nc3ccccc3s2)cc1 (centres unmarked) [Example L1, 2,3-diamoniumtrifluoroacetate-N-(4-benzothiazol-2-yl-phenyl)-propionamide] | – | – | – | – | – | – | – | – | – | – | – | – | – | – | 36.8 ± 3.66 µM | greater toxicity than BTA did | weak cytotoxicity | 77.8 ± 9.73 µM | 69.1 ± 5.25 µM | – | IC50 ([7]; Homo sapiens, PC-3, serum-free medium): 94.99 ± 0.82 µM; IC50 [8, 17]: 5.94 ± 0.501 µM; effect on cancer cell lines compared with the rest of the compounds, in words [11]: superior effects on breast cancer, liver cancer, brain glioma, lung cancer, prostate cancer, and kidney cancer than the rest of the compounds did; toxic effect on cancer cell lines compared with cisplatin and BTA, in words [11]: greater toxic effect against cancer cell lines of colorectal cancer, breast cancer, liver cancer, brain glioma, lung cancer, prostate cancer, and kidney cancer than the cisplatin and BTA did
NCC(N)C(=O)Nc1ccc(-c2nc3ccccc3s2)cc1.[Cl][Pt][Cl] (centres unmarked) [Example L1Pt] | 106 ± 8.54 µM | 167 ± 11.2 µM | 25.7 ± 1.66 µM | 46.9 ± 5.14 µM | 139.1 ± 0.85 µM | 93.3 ± 22.7 µM | 55.7 ± 7.47 µM | 7.49 ± 0.159 µM | 54.9 ± 2.83 µM | 69.4 ± 1.24 µM | 59 ± 11.1 µM | 64.75 ± 0.31 µM | 42.6 ± 5.61 µM | 80.8 ± 10.5 µM | – | greater toxicity than BTA did | weak cytotoxicity | – | – | – | effect on cancer cell lines compared with the rest of the compounds, in words [11]: superior effects on breast cancer, liver cancer, brain glioma, lung cancer, prostate cancer, and kidney cancer than the rest of the compounds did; toxic effect on cancer cell lines compared with cisplatin and BTA, in words [11]: greater toxic effect against cancer cell lines of colorectal cancer, breast cancer, liver cancer, brain glioma, lung cancer, prostate cancer, and kidney cancer than the cisplatin and BTA did
O=C(Nc1ccc(-c2nc3ccccc3s2)cc1)C(C/N=C/c1ccccc1O)/N=C/c1ccccc1O (centres unmarked) [Example L2, N-(4-benzothiazol-2-yl-phenyl)-2,3-bis-[(2-hydroxy-benzylidene)-amino]-propionamide] | – | – | – | – | – | – | – | – | – | – | – | – | – | – | 28.23 ± 0.06 µM | greater toxicity than BTA did | weak cytotoxicity | 143 ± 32.7 µM | 95.9 ± 15 µM | did not exhibit liver cytotoxicity | IC50 [8, 17]: 14.2 ± 7.06 µM; cell toxicity on cancer cell lines compared with BTA, in words [11]: greater cell toxicity against colorectal cancer, breast cancer, liver cancer, brain glioma, lung cancer, prostate cancer, and kidney cancer than BTA did; cell toxicity on cancer cell lines compared with cisplatin, in words [11]: greater toxic effect on cancer cell lines on lung cancer, prostate cancer, and kidney cancer than cisplatin did; IC50 [12, 19]: 98.2 ± 7.92 µM; IC50 ([13]; Homo sapiens, HeLa): 47.1 ± 6.07 µM; IC50 [15, 20]: 152 ± 19.9 µM
O=C(Nc1ccc(-c2nc3ccccc3s2)cc1)C1CN=Cc2ccccc2[O][Pt][O]c2ccccc2C=N1 (centres unmarked) [Example L2Pt] | > 500 µM | > 500 µM | 47 ± 4.12 µM | > 500 µM | > 500 µM | > 500 µM | > 500 µM | 31.6 ± 3.62 µM | 212 ± 14.9 µM | 197 ± 3.75 µM | > 500 µM | 221 ± 15.8 µM | 173 ± 3.23 µM | > 500 µM | – | greater toxicity than BTA did | weaker cytotoxicity or no cytotoxicity than cisplatin and BTA did | – | – | did not exhibit liver cytotoxicity | cell toxicity on cancer cell lines compared with BTA, in words [11]: greater cell toxicity on colorectal cancer than BTA did
O=C(Nc1ccc(-c2nc3ccccc3s2)cc1)C1CNC(c2ccccn2)=N1 (centres unmarked) [Example L3, N-(4-(benzo[d]thiazol-2-yl)phenyl)-2-(pyridin-2-yl)-4,5-dihydro-1H-imidazole-4-carboxamide] | – | – | – | – | – | – | – | – | – | – | – | – | – | – | 22.4 ± 2.44 µM | greater toxicity than BTA did | weaker cytotoxicity or no cytotoxicity than cisplatin and BTA did | 142 ± 15.4 µM | 178 ± 2.6 µM | did not exhibit liver cytotoxicity | cell toxicity on cancer cell lines compared with BTA, in words [11]: greater cell toxicity on colorectal cancer breast cancer and brain glioma than BTA did; cell toxicity on cancer cell lines compared with cisplatin, in words [11]: greater cell toxicity on prostate cancer and kidney cancer than cisplatin did; IC50 [12, 19]: 190 ± 16.6 µM; IC50 ([13]; Homo sapiens, HeLa): 99 ± 3.54 µM; IC50 [15, 20]: > 500 µM
O=C(Nc1ccc(-c2nc3ccccc3s2)cc1)C1CNC(c2ccccn2)=N1.[Cl][Pt][Cl] (centres unmarked) [Example L3Pt] | > 500 µM | > 500 µM | 32.4 ± 6.02 µM | > 500 µM | > 500 µM | > 500 µM | > 500 µM | > 500 µM | 206 ± 7.45 µM | 173 ± 24.3 µM | > 500 µM | > 500 µM | > 500 µM | > 500 µM | – | greater toxicity than BTA did | weaker cytotoxicity or no cytotoxicity than cisplatin and BTA did | – | – | did not exhibit liver cytotoxicity | effect on cancer cell lines, in words [11]: only exerts cell toxicity effects on liver cancer
